Assay results from patent US8431708B2, “Fluorescent carbazole compounds for cancer diagnosis” (Academia Sinica, priority 2009, dated 2013).

Tested on: MRC-5 human lung normal fibroblast cells
Assay: Fluorescence intensity as a function of incubation time in normal cells
Type: cell-based
Details: MRC-5 cells
Procedure: The fluorescence intensity of 3,6-bis(1-methyl-4-vinylpyridinium)carbazole diiode (BMVC) described in Kang et al., J. Chin. Chem. Soc., 2005, 52, 1069-1072 and Compound 3 were measured in CL1-0 lung cancer cells and MRC-5 human lung normal fibroblast cells as a function of incubation time.

C[n+]1ccc(C=Cc2ccc3[nH]c4ccc(C=Cc5cc[n+](C)cc5)cc4c3c2)cc1.[I-].[I-] [BMVC, 3,6-bis(1-methyl-4-vinylpyridinium)carbazole diiode]
fluorescence in normal cells: weak fluorescence in normal cells
